According to PubChem BioAssay (NCI):
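Method: 48-hour compound exposure of cells in 96-well plates, five concentrations, linear interpolation of endpoints. TGI: total growth inhibition.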

Key:
Experiment in all cases: NCI-60 cell line screen, 48 h
786-0 renal = test system: 786-0 renal
A498 renal = test system: A498 renal
A549 NSCLC = test system: A549 NSCLC
ACHN renal = test system: ACHN renal
BT-549 breast = test system: BT-549 breast
CAKI-1 renal = test system: CAKI-1 renal
CCRF-CEM leukemia = test system: CCRF-CEM leukemia
COLO 205 colon = test system: COLO 205 colon
DU-145 prostate = test system: DU-145 prostate
EKVX NSCLC = test system: EKVX NSCLC
HCC-2998 colon = test system: HCC-2998 colon
HCT-116 colon = test system: HCT-116 colon
HCT-15 colon = test system: HCT-15 colon
HL-60(TB) leukemia = test system: HL-60(TB) leukemia
HOP-62 NSCLC = test system: HOP-62 NSCLC
HOP-92 NSCLC = test system: HOP-92 NSCLC
HS 578T breast = test system: HS 578T breast
HT29 colon = test system: HT29 colon
IGROV1 ovarian = test system: IGROV1 ovarian
K-562 leukemia = test system: K-562 leukemia
KM12 colon = test system: KM12 colon
LOX IMVI melanoma = test system: LOX IMVI melanoma
M14 melanoma = test system: M14 melanoma
MALME-3M melanoma = test system: MALME-3M melanoma
MCF7 breast = test system: MCF7 breast
MDA-MB-231 breast = test system: MDA-MB-231 breast
MDA-MB-435 = test system: MDA-MB-435
MOLT-4 leukemia = test system: MOLT-4 leukemia
NCI-H226 lung = test system: NCI-H226 lung
NCI-H23 lung = test system: NCI-H23 lung
NCI-H460 lung = test system: NCI-H460 lung
NCI-H522 lung = test system: NCI-H522 lung
NCI/ADR-RES ovarian = test system: NCI/ADR-RES ovarian
OVCAR-3 ovarian = test system: OVCAR-3 ovarian
OVCAR-4 ovarian = test system: OVCAR-4 ovarian
OVCAR-5 ovarian = test system: OVCAR-5 ovarian
OVCAR-8 ovarian = test system: OVCAR-8 ovarian
PC-3 prostate = test system: PC-3 prostate
RPMI-8226 leukemia = test system: RPMI-8226 leukemia
RXF 393 renal = test system: RXF 393 renal
SF-268 CNS = test system: SF-268 CNS
SF-295 CNS = test system: SF-295 CNS
SF-539 CNS = test system: SF-539 CNS
SK-MEL-2 melanoma = test system: SK-MEL-2 melanoma
SK-MEL-28 melanoma = test system: SK-MEL-28 melanoma
SK-MEL-5 melanoma = test system: SK-MEL-5 melanoma
SK-OV-3 ovarian = test system: SK-OV-3 ovarian
SN12C renal = test system: SN12C renal
SNB-19 CNS = test system: SNB-19 CNS
SNB-75 CNS = test system: SNB-75 CNS
SR leukemia = test system: SR leukemia
SW-620 colon = test system: SW-620 colon
T-47D breast = test system: T-47D breast
TK-10 renal = test system: TK-10 renal
U251 CNS = test system: U251 CNS
UACC-257 melanoma = test system: UACC-257 melanoma
UACC-62 melanoma = test system: UACC-62 melanoma
UO-31 renal = test system: UO-31 renal

O=C1N(c2ccccc2)N=C2c3ccncc3C3=NN(c4ccccc4)C(=O)C123 (stereo not drawn)
TGI (786-0 renal): > 100 µM
TGI (A498 renal): > 100 µM
TGI (A549 NSCLC): > 100 µM
TGI (ACHN renal): > 100 µM
TGI (BT-549 breast): > 100 µM
TGI (CAKI-1 renal): > 100 µM
TGI (CCRF-CEM leukemia): > 100 µM
TGI (COLO 205 colon): 6.12 µM
TGI (DU-145 prostate): > 100 µM
TGI (EKVX NSCLC): > 100 µM
TGI (HCC-2998 colon): > 88 µM
TGI (HCT-116 colon): > 100 µM
TGI (HCT-15 colon): > 100 µM
TGI (HL-60(TB) leukemia): > 100 µM
TGI (HOP-62 NSCLC): > 100 µM
TGI (HOP-92 NSCLC): > 100 µM
TGI (HS 578T breast): > 100 µM
TGI (HT29 colon): > 100 µM
TGI (IGROV1 ovarian): > 100 µM
TGI (K-562 leukemia): > 100 µM
TGI (KM12 colon): > 100 µM
TGI (LOX IMVI melanoma): > 100 µM
TGI (M14 melanoma): > 100 µM
TGI (MALME-3M melanoma): > 100 µM
TGI (MCF7 breast): > 100 µM
TGI (MDA-MB-231 breast): > 100 µM
TGI (MDA-MB-435): > 100 µM
TGI (MOLT-4 leukemia): > 100 µM
TGI (NCI-H226 lung): > 100 µM
TGI (NCI-H23 lung): > 100 µM
TGI (NCI-H460 lung): > 100 µM
TGI (NCI-H522 lung): > 100 µM
TGI (NCI/ADR-RES ovarian): > 100 µM
TGI (OVCAR-3 ovarian): > 100 µM
TGI (OVCAR-4 ovarian): > 100 µM
TGI (OVCAR-5 ovarian): > 100 µM
TGI (OVCAR-8 ovarian): > 100 µM
TGI (PC-3 prostate): > 100 µM
TGI (RPMI-8226 leukemia): > 100 µM
TGI (RXF 393 renal): > 100 µM
TGI (SF-268 CNS): > 100 µM
TGI (SF-295 CNS): > 100 µM
TGI (SF-539 CNS): > 46.8 µM
TGI (SK-MEL-2 melanoma): > 100 µM
TGI (SK-MEL-28 melanoma): > 100 µM
TGI (SK-MEL-5 melanoma): > 47 µM
TGI (SK-OV-3 ovarian): > 100 µM
TGI (SN12C renal): > 100 µM
TGI (SNB-19 CNS): > 100 µM
TGI (SNB-75 CNS): > 100 µM
TGI (SR leukemia): > 100 µM
TGI (SW-620 colon): > 100 µM
TGI (T-47D breast): > 100 µM
TGI (TK-10 renal): > 100 µM
TGI (U251 CNS): > 100 µM
TGI (UACC-257 melanoma): > 100 µM
TGI (UACC-62 melanoma): > 57.1 µM
TGI (UO-31 renal): > 100 µM
